Earlier results on 1 molecule are cited in patent US6376550B1, “Pharmaceutical compositions containing tramadol for migraine” (ASTA Medica AG, priority 1999, dated 2002).

For the data set the following is noted: in vivo.

Take `COc1cccc(C2(O)CCCCC2CN(C)C)c1` (stereo not shown) [tramadol, 2-[(dimethylamino)methyl]-1-(3-methoxyphenyl)cyclohexanol]: the “terminal elimination half life” value was 5 to 6 h.
